Assay results taken from patent US11851426B2, “Bicyclic amines as CDK2 inhibitors” (Incyte Corporation, priority 2019, dated 2023).

Target: CDK2/Cyclin E1 (Homo sapiens (Human), UniProt P24941)
Assay: CDK2/Cyclin E1 HTRF enzyme activity assay
Type: biochemical
Conditions: 1 mM ATP; CDK2/Cyclin E1 0.25 nM; 60 minutes at room temperature
In short: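 HTRF read-out of 4E-BP1 (Thr37/46) peptide phosphorylation (ULight peptide 50 nM) by 0.25 nM baculovirus-made GST-CDK2/FLAG-Cyclin E1, with ATP at 50 μM or 1 mM, 60 min at room temperature, pH 7.5. Eu-anti-phospho antibody with EDTA quench; IC50 fitted by three- or four-parameter dose-response.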

IC50, ≤ 20 nM:
[2H]C(C)(C)Oc1c(-c2cn[nH]c2)ncc2nc(N[C@H]3CCN(S(C)(=O)=O)C[C@H]3C)nn12 [Example 137, N-((3R,4S)-3-Methyl-1-(methylsulfonyl)piperidin-4-yl)-5-((propan-2-yl-2-d)oxy)-6-(1H-pyrazol-4-yl)-[1,2,4]triazolo[1,5-a]pyrazin-2-amine]
[2H]C([2H])([2H])C(Oc1c(-c2cn[nH]c2)ncc2nc(N[C@H]3CCN(S(C)(=O)=O)C[C@H]3C)nn12)C([2H])([2H])[2H] [Example 138, N-((3R,4S)-3-Methyl-1-(methylsulfonyl)piperidin-4-yl)-5-((propan-2-yl-1,1,1,3,3,3-d6)oxy)-6-(1H-pyrazol-4-yl)-[1,2,4]triazolo[1,5-a]pyrazin-2-amine]
[2H]C([2H])([2H])C([2H])(Oc1c(-c2cn[nH]c2)ncc2nc(N[C@H]3CCN(S(C)(=O)=O)C[C@H]3C)nn12)C([2H])([2H])[2H] [Example 139, N-((3R,4S)-3-Methyl-1-(methylsulfonyl)piperidin-4-yl)-5-((propan-2-yl-d7)oxy)-6-(1H-pyrazol-4-yl)-[1,2,4]triazolo[1,5-a]pyrazin-2-amine]
C[C@@H]1CN(S(C)(=O)=O)CC[C@@H]1Nc1nc2cnc(-c3cn[nH]c3)c(OC3CCCC3)n2n1 [Example 140, 5-(Cyclopentyloxy)-N-((3R,4S)-3-methyl-1-(methylsulfonyl)piperidin-4-yl)-6-(1H-pyrazol-4-yl)-[1,2,4]triazolo[1,5-a]pyrazin-2-amine]
CC(C)Oc1c(-c2cn[nH]c2)ncc2nc(NC3CCN(S(C)(=O)=O)CC3)nn12 [Example 141, 5-Isopropoxy-N-(1-(methylsulfonyl)piperidin-4-yl)-6-(1H-pyrazol-4-yl)-[1,2,4]triazolo[1,5-a]pyrazin-2-amine]
[2H]C(C)(C)Oc1c(-c2cn[nH]c2)ncc2nc(NC3CCN(S(C)(=O)=O)CC3)nn12 [Example 142, N-(1-(Methylsulfonyl)piperidin-4-yl)-5-((propan-2-yl-2-d)oxy)-6-(1H-pyrazol-4-yl)-[1,2,4]triazolo[1,5-a]pyrazin-2-amine]
